Results on 10 molecules are retold here after ChEMBL document CHEMBL1201862, “PubChem BioAssay data set” (2004).

Some test systems named below: 786-0; A498; BT-549; HCC 2998; HCT-116; HCT-15; KM12; M14; MOLT-4; NCI-H226; NCI-H460; OVCAR-4; RXF 393; SK-MEL-28; SNB-19; SNB-75; T47D; TK-10; UACC-257; UACC-62.
Common to all, as to assay: NCI-60 cell line screen, 48 h

The structures appear in SMILES notation.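 These data come from cells grown in 96-well plates and exposed to compound for 48 hours at five concentrations. Abbreviation: GI50, concentration required for 50% inhibition of growth.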 The source made the active and inactive calls. No stated cut-off is given here; in the data, active = GI50 up to about 1.1 µM and inactive = higher. Where only a bound is given, the exact number is not on record here.

With `Cn1cncc1CC1COC(=O)C1C(O)c1ccccc1` (stereo not given), the GI50 is > 100 µM (inactive) in the assay with 786-0; > 100 µM (inactive) in the assay with A498; > 100 µM (inactive) with BT-549; > 100 µM (inactive) with HCC 2998; > 100 µM (inactive) in the assay on HCT-116; over 100 µM with HCT-15. Besides, the GI50 in the assay on KM12, in the assay on M14, in the assay with MOLT-4, with NCI-H226, in the assay on NCI-H460 and in the assay on OVCAR-4 was > 100 µM (inactive) throughout. Also, the GI50 with RXF 393, in the assay with SK-MEL-28, with SNB-19, in the assay on SNB-75, in the assay with T47D and with TK-10 was > 100 µM (inactive) in each case. Further, the GI50 with UACC-257 and in the assay with UACC-62 was > 100 µM (inactive) throughout.

As for `O=C(CCCCCCCCC(=O)N1C(=O)CC(=O)N(c2ccc(Cl)cc2)C1=S)N1C(=O)CC(=O)N(c2ccc(Cl)cc2)C1=S`, the GI50 in the assay on 786-0 is 67.9 µM (inactive); with A498 it was > 100 µM (inactive); with BT-549 it was 67 µM (inactive); in the assay with HCC 2998 it was 38.9 µM (inactive); in the assay on HCT-116 it was 48.5 µM (inactive); in the assay with HCT-15, 35.6 µM. For the same molecule, the GI50 in the assay on KM12 was 27.4 µM (inactive); in the assay with M14, 38.5 µM (inactive); in the assay with MOLT-4 it was 19.8 µM (inactive); with NCI-H226 it was > 100 µM (inactive); with NCI-H460 it was 29.6 µM (inactive); with OVCAR-4 it was 41.6 µM (inactive). In addition, the GI50 is > 100 µM (inactive) with RXF 393; 70.3 µM (inactive) in the assay with SK-MEL-28; 74.1 µM (inactive) in the assay with SNB-19; > 100 µM (inactive) in the assay on SNB-75; 33.3 µM (inactive) in the assay on T47D; > 100 µM (inactive) in the assay with TK-10. Moreover, the GI50 in the assay with UACC-257 is > 100 µM (inactive); with UACC-62, 15.5 µM (inactive).

As to `NCC(O)CN.Oc1c(Cl)c(Cl)c(Cl)c(Cl)c1Cl`, the GI50 in the assay with 786-0 was 23.6 µM (inactive); in the assay on A498 it was 17.8 µM (inactive); in the assay with BT-549, 24 µM (inactive); with HCC 2998 it was 17.9 µM (inactive); in the assay on HCT-116, 18.2 µM (inactive); with HCT-15, 18.2 µM. For the same molecule, the GI50 in the assay on KM12 is 20.2 µM (inactive); in the assay on M14, 19.7 µM (inactive); in the assay on MOLT-4 it was 19.7 µM (inactive); in the assay on NCI-H226, 18 µM (inactive); with NCI-H460 it was 18.7 µM (inactive); in the assay with OVCAR-4, 35.9 µM (inactive). Also, the GI50 with RXF 393 is 27 µM (inactive); in the assay with SK-MEL-28, 21.2 µM (inactive); with SNB-19, 21 µM (inactive); in the assay on SNB-75 it was 22.1 µM (inactive); with T47D it was 22.5 µM (inactive); in the assay on TK-10, 24.5 µM (inactive). The GI50 in the assay on UACC-257 was 21.2 µM (inactive); in the assay with UACC-62, 19 µM (inactive).

Regarding `N#CC12C(=O)N3C(=NC(c4ccccc4)NC3c3ccccc3)C1(C#N)C(c1ccccc1)NC1=C2CCC1` (stereo not given), the GI50 with 786-0 was > 100 µM (inactive); in the assay on A498, > 100 µM (inactive); with BT-549, > 100 µM (inactive); with HCC 2998, > 100 µM (inactive); in the assay on HCT-116, > 100 µM (inactive); in the assay on HCT-15 it was over 100 µM. In addition, the GI50 in the assay on KM12, in the assay on M14, in the assay with MOLT-4, in the assay on NCI-H226, with NCI-H460 and with OVCAR-4 was > 100 µM (inactive) each time. The GI50 in the assay with RXF 393, in the assay with SK-MEL-28, in the assay with SNB-19, in the assay on SNB-75, with T47D and with TK-10 was > 100 µM (inactive) in each case. For the same molecule, the GI50 in the assay with UACC-257 and in the assay with UACC-62 was > 100 µM (inactive) each time.

In the case of `Nc1n[nH]c2c(C(=O)Nc3ccc(Cl)cc3)c(N)n(N)c(=O)c12`, the GI50 is > 100 µM (inactive) with 786-0; > 100 µM (inactive) with A498; > 100 µM (inactive) with BT-549; > 100 µM (inactive) with HCC 2998; > 100 µM (inactive) with HCT-116; over 100 µM with HCT-15. In addition, the GI50 in the assay with KM12, in the assay with M14, in the assay with MOLT-4, with NCI-H226, in the assay on NCI-H460 and with OVCAR-4 was > 100 µM (inactive) each time. Also, the GI50 with RXF 393, in the assay on SK-MEL-28, with SNB-19, in the assay on SNB-75, with T47D and with TK-10 was > 100 µM (inactive) in each case. In addition, the GI50 with UACC-257 and in the assay on UACC-62 was > 100 µM (inactive) throughout.

With `CNC(=O)[C@H](Cc1ccccc1)NC(=O)N(CCC#N)CCN(C(=O)N[C@@H](Cc1ccccc1)C(=O)OC)c1ccccc1`, the GI50 with 786-0 was > 100 µM (inactive); in the assay with A498, > 100 µM (inactive); with BT-549 it was > 100 µM (inactive); in the assay with HCC 2998, > 10 µM (inactive); in the assay with HCT-116, > 100 µM (inactive); in the assay on HCT-15 it was over 100 µM. Also, the GI50 with KM12, in the assay on M14, in the assay on MOLT-4, in the assay with NCI-H226, in the assay with NCI-H460 and with OVCAR-4 was > 100 µM (inactive) each time. The GI50 in the assay on RXF 393 is > 100 µM (inactive); in the assay with SK-MEL-28 it was > 100 µM (inactive); in the assay with SNB-19, > 100 µM (inactive); in the assay on SNB-75, 16.6 µM (inactive); in the assay with T47D it was > 100 µM (inactive); with TK-10 it was > 100 µM (inactive). Further, the GI50 in the assay on UACC-257 and in the assay on UACC-62 was > 100 µM (inactive) in each case.

Consider `CN=C(n1ccnc1)n1ccnc1`, for which the GI50 in the assay with 786-0 was > 100 µM (inactive); with A498 it was > 100 µM (inactive); with BT-549 it was > 100 µM (inactive); in the assay with HCC 2998 it was > 100 µM (inactive); with HCT-116 it was > 100 µM (inactive); in the assay on HCT-15, over 100 µM. Also, the GI50 with KM12, in the assay on M14, in the assay on MOLT-4, with NCI-H226, in the assay with NCI-H460 and in the assay on OVCAR-4 was > 100 µM (inactive) throughout. Moreover, the GI50 in the assay on RXF 393, with SK-MEL-28, in the assay with SNB-19, in the assay on SNB-75, in the assay on T47D and in the assay with TK-10 was > 100 µM (inactive) throughout. Further, the GI50 in the assay with UACC-257 and with UACC-62 was > 100 µM (inactive) in each case.

Turning to `O=C(c1cc(Cl)cc(Cl)c1)N1CCN(C(=O)c2cc(Cl)cc(Cl)c2)C1=S`, the GI50 with 786-0 is 2.4 µM (inactive); with A498, 15.5 µM (inactive); in the assay on BT-549, 24.9 µM (inactive); with HCC 2998 it was 16.7 µM (inactive); in the assay with HCT-116 it was 16.4 µM (inactive); with HCT-15 it was 12.6 µM. Moreover, the GI50 in the assay with KM12 was 11.7 µM (inactive); with M14, 13.2 µM (inactive); in the assay with MOLT-4, 3.94 µM (inactive); with NCI-H226, 23.7 µM (inactive); with NCI-H460 it was 16.6 µM (inactive); in the assay with OVCAR-4 it was 19.1 µM (inactive). In addition, the GI50 is 11.8 µM (inactive) with RXF 393; 23.2 µM (inactive) in the assay on SK-MEL-28; 18.3 µM (inactive) with SNB-19; 14.1 µM (inactive) with SNB-75; 7.06 µM (inactive) with T47D; 10.7 µM (inactive) in the assay with TK-10. In addition, the GI50 was 13.3 µM (inactive) in the assay with UACC-257 and 9.91 µM (inactive) with UACC-62.

As to `C=C1C(=O)OC2C1CCC(=C)C1CC(O)C(=C)C12` (stereo not given), the GI50 in the assay with 786-0 is 5.5 µM (inactive); in the assay on A498, 20 µM (inactive); in the assay with BT-549, 15.3 µM (inactive); with HCC 2998, 14.3 µM (inactive); in the assay with HCT-116, 12.7 µM (inactive); in the assay with HCT-15 it was 10.8 µM. The GI50 in the assay on KM12 was 13.7 µM (inactive); in the assay on M14, 17.5 µM (inactive); in the assay with MOLT-4 it was 8.38 µM (inactive); with NCI-H226, 27.1 µM (inactive); in the assay on NCI-H460 it was 18 µM (inactive); in the assay on OVCAR-4, 16.2 µM (inactive). Moreover, the GI50 with RXF 393 was 13.1 µM (inactive); with SK-MEL-28, 14.4 µM (inactive); in the assay with SNB-19, 23.8 µM (inactive); in the assay with SNB-75, 19.7 µM (inactive); with T47D, 20.7 µM (inactive); with TK-10, 8.02 µM (inactive). Moreover, the GI50 is 12.9 µM (inactive) in the assay on UACC-257 and 13.5 µM (inactive) with UACC-62.

As for `COc1cc(OC)c(-c2cc(=O)c3c(OC)c(OC)c(OC)c(OC)c3o2)cc1OC`, the GI50 was > 69.3 µM (inactive) with 786-0; > 61.2 µM (inactive) in the assay with A498; > 100 µM (inactive) in the assay on BT-549; > 100 µM (inactive) in the assay on HCC 2998; > 100 µM (inactive) in the assay on HCT-116; over 100 µM with HCT-15. In addition, the GI50 in the assay with KM12 is 74.1 µM (inactive); in the assay on M14 it was > 100 µM (inactive); in the assay on MOLT-4 it was 22.2 µM (inactive); with NCI-H226, > 100 µM (inactive); in the assay on NCI-H460, > 100 µM (inactive); in the assay on OVCAR-4 it was > 90.8 µM (inactive). Also, the GI50 with RXF 393 is 12.7 µM (inactive); with SK-MEL-28, > 100 µM (inactive); with SNB-19, > 87.7 µM (inactive); in the assay on SNB-75 it was 14.9 µM (inactive); in the assay with T47D, 8.18 µM (inactive); with TK-10, 97.5 µM (inactive). Moreover, the values for the GI50 in the assay with UACC-257 and with UACC-62 were > 100 µM (inactive) and 29.6 µM (inactive), respectively.
